According to patent US20230416258A1, “BENZ[…], AND PREPARATION METHOD THEREFOR AND USE THEREOF” (CHINA PHARMACEUTICAL UNIVERSITY, priority 2020, published 2023):

Tested on: KM mice
Assay: Test for drug-induced disappearance of righting reflex in mice
Format: in vivo
Details: single rapid bolus via tail vein
How it was run: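 Latency to, and duration of, righting reflex loss were recorded after one fast tail-vein bolus. Animals: randomized female KM mice weighing 18–25 g.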

SMILES | Duration (30 mg/kg) [min] | Latency (30 mg/kg) [min] | Duration (60 mg/kg) [min] | Latency (60 mg/kg) [min] | Duration (15 mg/kg) [min] | Latency (15 mg/kg) [min]
COC(=O)CC[C@@H]1N=C(c2ccccc2)c2cc([N+](=O)[O-])ccc2-n2c(SC)nnc21 [Compound 104, methyl (S)-3-(8-nitro-1-(methylthio)-6-phenyl-4H-benzo[f][1,2,4]triazolo[4,3-a][1,4]diazepin-4-yl)propionate] | 9.78 | 0.77 | – | – | – | –
COC(=O)CC[C@@H]1N=C(c2ccccc2)c2cc(Cl)ccc2-n2c(SCCN3CCOCC3)nnc21 [Compound 105, methyl (S)-3-(8-chloro-1-((2-morpholinoethyl)thio)-6-phenyl-4H-benzo[f][1,2,4]triazolo[4,3-a][1,4]diazepin-4-yl)propionate] | 13.94 | 0.63 | 13.17 | 0.49 | – | –
COC(=O)CC[C@@H]1N=C(c2ccccc2)c2cc(Br)ccc2-n2c(SCCN3CCOCC3)nnc21 [Compound 106, methyl (S)-3-(8-bromo-1-((2-morpholinoethyl)thio)-6-phenyl-4H-benzo[f][1,2,4]triazolo[4,3-a][1,4]diazepin-4-yl)propionate] | 12.37 | 0.33 | 3.26 | 0.09 | – | –
COC(=O)CC[C@@H]1N=C(c2ccccc2)c2cc([N+](=O)[O-])ccc2-n2c(SCCN3CCOCC3)nnc21 [Compound 107, methyl (S)-3-(8-nitro-1-((2-morpholinoethyl)thio)-6-phenyl-4H-benzo[f][1,2,4]triazolo[4,3-a][1,4]diazepin-4-yl)propionate] | 13.64 | 0.45 | – | – | – | –
COC(=O)CC[C@@H]1N=C(c2ccccc2)c2cc(Cl)ccc2-n2c(SCCCN(C)C)nnc21 [Compound 108, methyl (S)-3-(8-chloro-1-((3-(dimethylamino)propyl)thio)-6-phenyl-4H-benzo[f][1,2,4]triazolo[4,3-a][1,4]diazepin-4-yl)propionate] | – | – | 11.73 | 0.59 | – | –
COC(=O)CC[C@@H]1N=C(c2ccccc2)c2cc(Br)ccc2-n2c(SCCCN(C)C)nnc21 [Compound 109, methyl (S)-3-(8-bromo-1-((3-(dimethylamino)propyl)thio)-6-phenyl-4H-benzo[f][1,2,4]triazolo[4,3-a][1,4]diazepin-4-yl)propionate] | – | – | 13.27 | 0.97 | – | –
COC(=O)CC[C@@H]1N=C(c2ccccc2)c2cc([N+](=O)[O-])ccc2-n2c(SCCCN(C)C)nnc21 [Compound 110, methyl (S)-3-(8-nitro-1-((3-(dimethylamino)propyl)thio)-6-phenyl-4H-benzo[f][1,2,4]triazolo[4,3-a][1,4]diazepin-4-yl)propionate] | 10.16 | 0.22 | 15.27 | 0.21 | – | –
COC(=O)CC[C@@H]1N=C(c2ccccc2Cl)c2cc(Cl)ccc2-n2c(SCOP(=O)(O)O)nnc21 [Compound 111, methyl (S)-3-(8-chloro-6-(2-chlorophenyl)-1-(((phosphonooxy)methyl)thio)-4H-benzo[f][1,2,4]triazolo[4,3-a][1,4]diazepin-4-yl)propionate] | 18.36 | 0.67 | – | – | – | –
COC(=O)CC[C@@H]1N=C(c2ccccc2Cl)c2cc(Br)ccc2-n2c(SCOP(=O)(O)O)nnc21 [Compound 112, methyl (S)-3-(8-bromo-6-(2-chlorophenyl)-1-(((phosphonooxy)methyl)thio)-4H-benzo[f][1,2,4]triazolo[4,3-a][1,4]diazepin-4-yl)propionate] | 19.21 | 0.78 | 12.62 | 0.46 | – | –
COC(=O)CC[C@@H]1N=C(c2ccccc2Cl)c2cc([N+](=O)[O-])ccc2-n2c(SCOP(=O)(O)O)nnc21 [Compound 113, methyl (S)-3-(8-nitro-6-(2-chlorophenyl)-1-(((phosphonooxy)methyl)thio)-4H-benzo[f][1,2,4]triazolo[4,3-a][1,4]diazepin-4-yl)propionate] | – | – | 9.49 | 0.58 | – | –
COC(=O)CC[C@@H]1N=C(c2ccccn2)c2cc(Br)ccc2-n2c(SC)nnc21 [Compound 114, methyl (S)-3-(8-bromo-6-(pyridin-2-yl)-1-methylthio-4H-benzo[f][1,2,4]triazolo[4,3-a][1,4]diazepin-4-yl)propionate] | 20.32 | 0.41 | – | – | – | –
CCSc1nnc2n1-c1ccc(Br)cc1C(c1ccccn1)=N[C@H]2CCC(=O)OC [Compound 115, methyl (S)-3-(8-bromo-6-(pyridin-2-yl)-1-ethylthio-4H-benzo[f][1,2,4]triazolo[4,3-a][1,4]diazepin-4-yl)propionate] | 5.02 | 0.13 | – | – | 1.26 | 0.18
COC(=O)CC[C@@H]1N=C(c2ccccn2)c2cc(Br)ccc2-n2c(SCC3CC3)nnc21 [Compound 116, methyl (S)-3-(8-bromo-6-(pyridin-2-yl)-1-((cyclopropylmethyl)thio)-4H-benzo[f][1,2,4]triazolo[4,3-a][1,4]diazepin-4-yl)propionate] | 10.89 | 0.11 | – | – | – | –
COC(=O)CC[C@@H]1N=C(c2ccccn2)c2cc(Br)ccc2-n2c(SCCN3CCOCC3)nnc21 [Compound 117, methyl (S)-3-(8-bromo-6-(pyridin-2-yl)-1-((2-morpholinoethyl)thio)-4H-benzo[f][1,2,4]triazolo[4,3-a][1,4]diazepin-4-yl)propionate] | 2.03 | 0.14 | – | – | – | –
COC(=O)CC[C@@H]1N=C(c2ccccn2)c2cc(Br)ccc2-n2c(SCCCN(C)C)nnc21 [Compound 118, methyl (S)-3-(8-bromo-6-(pyridin-2-yl)-1-(3-((dimethylamino)propyl)thio)-4H-benzo[f][1,2,4]triazolo[4,3-a][1,4]diazepin-4-yl)propionate] | 15.44 | 0.32 | – | – | – | –
COC(=O)CC[C@@H]1N=C(c2ccccc2F)c2cc(Br)ccc2-n2c(SCCN3CCCC3)nnc21 [Compound 120, methyl (S)-3-(8-bromo-6-(2-fluorophenyl)-1-(2-((pyrrolidin-1-yl)ethyl)thio)-4H-benzo[f][1,2,4]triazolo[4,3-a][1,4]diazepin-4-yl)propionate] | 19.47 | 0.29 | – | – | – | –
COC(=O)CC[C@@H]1N=C(c2ccccc2Cl)c2cc(Br)ccc2-n2c(SCCN3CCCC3)nnc21 [Compound 121, methyl (S)-3-(8-bromo-6-(2-chlorophenyl)-1-((2-(pyrrolidin-1-yl)ethyl)thio)-4H-benzo[f][1,2,4]triazolo[4,3-a][1,4]diazepin-4-yl)propionate] | – | – | 16.67 | 0.18 | – | –
COC(=O)CC[C@@H]1N=C(c2ccccc2Cl)c2cc(Cl)ccc2-n2c(SCCN3CCCCC3)nnc21 [Compound 122, methyl (S)-3-(8-chloro-6-(2-chlorophenyl)-1-(2-((piperidin-1-yl)ethyl)thio)-4H-benzo[f][1,2,4]triazolo[4,3-a][1,4]diazepin-4-yl)propionate] | 28.06 | 0.30 | – | – | – | –
COC(=O)CC[C@@H]1N=C(c2ccccc2F)c2cc(Br)ccc2-n2c(SCCN3CCCCC3)nnc21 [Compound 123, methyl (S)-3-(8-bromo-6-(2-fluorophenyl)-1-(2-((piperidin-1-yl)ethyl)thio)-4H-benzo[f][1,2,4]triazolo[4,3-a][1,4]diazepin-4-yl)propionate] | 53.03 | 0.23 | – | – | 1.38 | 0.30
COC(=O)CC[C@@H]1N=C(c2ccccc2Cl)c2cc(Cl)ccc2-n2c(SCc3ccncc3)nnc21 [Compound 124, methyl (S)-3-(8-chloro-6-(2-chlorophenyl)-1-(2-((pyridin-4-yl)methyl)thio)-4H-benzo[f][1,2,4]triazolo[4,3-a][1,4]diazepin-4-yl)propionate] | 13.31 | 0.23 | – | – | 7.67 | 0.18
COC(=O)CC[C@@H]1N=C(c2ccccc2F)c2cc(Br)ccc2-n2c(SCc3ccncc3)nnc21 [Compound 125, methyl (S)-3-(8-bromo-6-(2-fluorophenyl)-1-(2-((pyridin-4-yl)methyl)thio)-4H-benzo[f][1,2,4]triazolo[4,3-a][1,4]diazepin-4-yl)propionate] | 7.81 | 0.19 | – | – | – | –
COC(=O)CC[C@@H]1N=C(c2ccccc2Cl)c2cc(Cl)ccc2-n2c(SCCN3CCC(F)(F)CC3)nnc21 [Compound 127, methyl (S)-3-(8-chloro-6-(2-chlorophenyl)-1-(2-((4,4-difluoropiperidin-1-yl)ethyl)thio)-4H-benzo[f][1,2,4]triazolo[4,3-a][1,4]diazepin-4-yl)propionate] | 18.11 | 0.43 | – | – | – | –
COC(=O)CC[C@@H]1N=C(c2ccccc2F)c2cc(Br)ccc2-n2c(SCCN3CCC(F)(F)CC3)nnc21 [Compound 128] | 7.98 | 0.42 | – | – | – | –
COC(=O)CC[C@@H]1N=C(c2ccccc2Cl)c2cc(Cl)ccc2-n2c(SC(=O)N3CCN(C)CC3)nnc21 [Compound 130, methyl (S)-3-(8-chloro-6-(2-chlorophenyl)-1-(2-(4-methylpiperazine-1-carbonyl)thio)-4H-benzo[f][1,2,4]triazolo[4,3-a][1,4]diazepin-4-yl)propionate] | 18.27 | 0.52 | – | – | – | –
COC(=O)CC[C@@H]1N=C(c2ccccc2F)c2cc(Br)ccc2-n2c(SC(=O)N3CCN(C)CC3)nnc21 [Compound 131] | 6.84 | 0.56 | – | – | – | –
CCN(CC)CCCSc1nnc2n1-c1ccc(Cl)cc1C(c1ccccc1Cl)=N[C@H]2CCC(=O)OC [Compound 132, methyl (S)-3-(8-chloro-6-(2-chlorophenyl)-1-(3-((diethylamino)propyl)thio)-4H-benzo[f][1,2,4]triazolo[4,3-a][1,4]diazepin-4-yl)propionate] | 18.05 | 0.87 | – | – | – | –
